Details: Hot wire method

FC(F)(F)/C=C/Cl [(E)-1-chloro-3,3,3-trifluoroprop-1-ene]
Details | thermal conductivity [W/m/K]
323.1 K, 34268 kPa, Liquid | 0.09193
323.1 K, 66598 kPa, Liquid | 0.1029
323.11 K, 123 kPa, Gas | 0.01239
323.13 K, 141 kPa, Gas | 0.01226
323.13 K, 436 kPa, Liquid | 0.07562
323.13 K, 34301 kPa, Liquid | 0.09204
323.15 K, 9819 kPa, Liquid | 0.08053
323.15 K, 56133 kPa, Liquid | 0.09946
323.17 K, 162 kPa, Gas | 0.01242
323.18 K, 25073 kPa, Liquid | 0.08808
323.2 K, 191 kPa, Gas | 0.01256
323.22 K, 5184 kPa, Liquid | 0.07808
323.24 K, 99 kPa, Gas | 0.01215
323.24 K, 43827 kPa, Liquid | 0.09508
323.25 K, 99 kPa, Gas | 0.01276
323.25 K, 164 kPa, Gas | 0.01258
323.26 K, 123 kPa, Gas | 0.01268
323.26 K, 43810 kPa, Liquid | 0.0946
323.3 K, 34263 kPa, Liquid | 0.09159
323.32 K, 34298 kPa, Liquid | 0.09169
323.33 K, 446 kPa, Liquid | 0.07514
323.39 K, 25067 kPa, Liquid | 0.08782
323.41 K, 123 kPa, Gas | 0.01233
323.45 K, 161 kPa, Gas | 0.01242
323.47 K, 142 kPa, Gas | 0.0127
323.52 K, 66583 kPa, Liquid | 0.1032
323.54 K, 259 kPa, Gas | 0.01261
323.54 K, 66602 kPa, Liquid | 0.103
323.57 K, 16961 kPa, Liquid | 0.08443
323.6 K, 56150 kPa, Liquid | 0.09972
323.64 K, 165 kPa, Gas | 0.01259
323.64 K, 189 kPa, Gas | 0.01262
323.65 K, 123 kPa, Gas | 0.01276
323.66 K, 9815 kPa, Liquid | 0.08057
323.69 K, 99 kPa, Gas | 0.01287
323.72 K, 123 kPa, Gas | 0.01229
323.73 K, 66589 kPa, Liquid | 0.103
323.75 K, 66615 kPa, Liquid | 0.1027
323.76 K, 5178 kPa, Liquid | 0.07818
323.77 K, 160 kPa, Gas | 0.01238
323.77 K, 16953 kPa, Liquid | 0.08413
323.81 K, 56140 kPa, Liquid | 0.09958
323.87 K, 438 kPa, Liquid | 0.07537
323.88 K, 9798 kPa, Liquid | 0.08054
323.92 K, 142 kPa, Gas | 0.01276
323.98 K, 5181 kPa, Liquid | 0.07788
323.99 K, 260 kPa, Gas | 0.01261
324.07 K, 165 kPa, Gas | 0.01273
324.09 K, 123 kPa, Gas | 0.0128
324.11 K, 428 kPa, Liquid | 0.07518
324.12 K, 188 kPa, Gas | 0.01262
324.17 K, 99 kPa, Gas | 0.01287
324.41 K, 142 kPa, Gas | 0.01275
324.45 K, 260 kPa, Gas | 0.01268
324.52 K, 165 kPa, Gas | 0.01271
324.55 K, 123 kPa, Gas | 0.01276
324.61 K, 187 kPa, Gas | 0.01271
324.68 K, 99 kPa, Gas | 0.0129
324.93 K, 141 kPa, Gas | 0.01279
324.96 K, 260 kPa, Gas | 0.01269
324.99 K, 163 kPa, Gas | 0.01274
325.04 K, 123 kPa, Gas | 0.01286
325.13 K, 186 kPa, Gas | 0.01278
325.22 K, 99 kPa, Gas | 0.01286
325.47 K, 141 kPa, Gas | 0.01283
325.5 K, 161 kPa, Gas | 0.01276
325.56 K, 123 kPa, Gas | 0.01283
325.79 K, 99 kPa, Gas | 0.01295
326.04 K, 160 kPa, Gas | 0.01284
326.1 K, 123 kPa, Gas | 0.01295
331.18 K, 333 kPa, Gas | 0.01373
331.42 K, 333 kPa, Gas | 0.01368
331.5 K, 333 kPa, Gas | 0.01298
331.53 K, 115 kPa, Gas | 0.01325
331.54 K, 333 kPa, Gas | 0.01297
331.58 K, 329 kPa, Gas | 0.01333
331.68 K, 333 kPa, Gas | 0.01367
331.75 K, 257 kPa, Gas | 0.01341
331.8 K, 182 kPa, Gas | 0.01323
331.82 K, 332 kPa, Gas | 0.01319
331.83 K, 113 kPa, Gas | 0.01306
331.85 K, 115 kPa, Gas | 0.01325
331.86 K, 333 kPa, Gas | 0.01297
331.89 K, 328 kPa, Gas | 0.01301
331.9 K, 328 kPa, Gas | 0.01382
331.94 K, 333 kPa, Gas | 0.01367
331.97 K, 263 kPa, Gas | 0.01309
332 K, 256 kPa, Gas | 0.01333
332.04 K, 97 kPa, Gas | 0.01346
332.06 K, 181 kPa, Gas | 0.01314
332.08 K, 113 kPa, Gas | 0.01302
332.08 K, 186 kPa, Gas | 0.01344
332.12 K, 331 kPa, Gas | 0.01303
332.14 K, 328 kPa, Gas | 0.01379
332.18 K, 114 kPa, Gas | 0.01353
332.2 K, 328 kPa, Gas | 0.01299
332.25 K, 255 kPa, Gas | 0.01328
332.28 K, 333 kPa, Gas | 0.013
332.3 K, 262 kPa, Gas | 0.01306
332.33 K, 180 kPa, Gas | 0.01309
332.36 K, 113 kPa, Gas | 0.01297
332.37 K, 97 kPa, Gas | 0.01361
332.4 K, 328 kPa, Gas | 0.01373
332.42 K, 185 kPa, Gas | 0.01339
332.52 K, 253 kPa, Gas | 0.01329
332.54 K, 113 kPa, Gas | 0.01346
332.56 K, 97 kPa, Gas | 0.01298
332.56 K, 328 kPa, Gas | 0.01325
332.63 K, 178 kPa, Gas | 0.01301
332.63 K, 333 kPa, Gas | 0.01323
332.64 K, 112 kPa, Gas | 0.01294
332.66 K, 260 kPa, Gas | 0.01314
332.67 K, 328 kPa, Gas | 0.01373
332.71 K, 98 kPa, Gas | 0.01354
332.81 K, 183 kPa, Gas | 0.0135
332.81 K, 252 kPa, Gas | 0.01326
332.84 K, 97 kPa, Gas | 0.01292
332.93 K, 177 kPa, Gas | 0.01297
332.95 K, 113 kPa, Gas | 0.01357
332.95 K, 328 kPa, Gas | 0.0132
332.96 K, 113 kPa, Gas | 0.01287
333.06 K, 258 kPa, Gas | 0.01325
333.08 K, 97 kPa, Gas | 0.01356
333.08 K, 333 kPa, Gas | 0.01308
333.14 K, 97 kPa, Gas | 0.01284
333.22 K, 183 kPa, Gas | 0.01328
333.25 K, 176 kPa, Gas | 0.01293
333.35 K, 328 kPa, Gas | 0.0133
333.38 K, 113 kPa, Gas | 0.01357
333.44 K, 97 kPa, Gas | 0.01284
333.49 K, 257 kPa, Gas | 0.01337
333.5 K, 97 kPa, Gas | 0.01356
333.54 K, 333 kPa, Gas | 0.01313
333.58 K, 176 kPa, Gas | 0.01292
333.66 K, 182 kPa, Gas | 0.01345
333.78 K, 328 kPa, Gas | 0.01326
333.82 K, 113 kPa, Gas | 0.0136
333.93 K, 255 kPa, Gas | 0.01332
333.94 K, 97 kPa, Gas | 0.01368
334.01 K, 333 kPa, Gas | 0.01329
334.14 K, 180 kPa, Gas | 0.01351
334.25 K, 328 kPa, Gas | 0.01327
334.31 K, 112 kPa, Gas | 0.01357
334.41 K, 97 kPa, Gas | 0.01363
334.42 K, 254 kPa, Gas | 0.0134
